Assay results taken from US20240115578A1, “DRUG COMPOSITION FOR TREATING PEDIATRIC CANCERS” (CHUGAI SEIYAKU KABUSHIKI KAISHA, priority 2021, published 2024).

Experiments:
[1] = Intrinsic clearance, other HLM; type: in vitro ADME; conditions: human, human liver microsomes; PBPK input; read-out: CLint, HLMother
Description: (§1) The PBPK model was constructed by combining alectinib-specific physicochemical information (molecular weight, logP, pKa, etc.), and the in vitro and in vivo study results obtained so far, with the physiological information on the target population in the SimCYP (registered trademark) software (Certara, Sheffield, UK) (Table 2).

CYP3A4 [2] = assay: CYP3A4 induction; type: in vitro ADME; conditions: PBPK input
Description: as §1

CYP2C8 = target: T1, CYP2C8 (Homo sapiens, UniProt P10632); assay: Competitive CYP2C8 inhibition; type: biochemical; conditions: PBPK input
T1 sequence (P10632 1-490): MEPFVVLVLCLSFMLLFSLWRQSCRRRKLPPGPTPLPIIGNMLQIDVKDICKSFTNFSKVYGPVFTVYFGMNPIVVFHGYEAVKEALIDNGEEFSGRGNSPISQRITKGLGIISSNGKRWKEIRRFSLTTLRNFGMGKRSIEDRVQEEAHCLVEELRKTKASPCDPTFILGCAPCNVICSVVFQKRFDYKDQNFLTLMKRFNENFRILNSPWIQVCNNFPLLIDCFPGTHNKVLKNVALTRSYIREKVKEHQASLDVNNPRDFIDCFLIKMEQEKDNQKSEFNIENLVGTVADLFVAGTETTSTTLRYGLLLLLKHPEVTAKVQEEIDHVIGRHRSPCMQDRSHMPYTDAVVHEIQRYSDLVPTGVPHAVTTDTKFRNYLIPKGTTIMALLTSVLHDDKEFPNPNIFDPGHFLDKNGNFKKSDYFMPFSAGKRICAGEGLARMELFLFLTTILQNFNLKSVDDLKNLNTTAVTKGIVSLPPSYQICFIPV
Description: as §1

CYP3A4 [3] = target: T2, CYP3A4 (Homo sapiens, UniProt P08684); assay: Intrinsic clearance by CYP3A4; type: in vitro ADME
Description: For pediatric PK prediction, especially for children under the age of 2 years, the need to consider developmental changes in the expression of drug-metabolizing enzymes and the like, in addition to the changes in body size associated with growth, has been reported (C Wagner, P Zhao, Y Pan, V Hsu, J Grillo, S M Huang, V Sinha. Application of Physiologically Based Pharmacokinetic (PBPK) Modeling to Support Dose Selection: Report of an FDA Public Workshop on PBPK. CPT Pharmacometrics Syst Pharmacol. 2015 April; 4(4): 226-30).
as §1
To predict pediatric PK, the physiological information on Japanese adults was replaced with that on Japanese children. […] The inter-individual variability in blood concentration on this simulation was calculated based on Japanese demographic data (Japanese pediatric demographic data source from Japanese Ministry of Health, Labour, and Welfare. Available from: […]

[4] = Absorption parameters fitted to clinical PK profiles in Japanese adult patients (JP28927); type: in vivo
Description: It was then optimized using clinical trial results in Japanese adults as parameters related to the absorption process were incorporated into the model.

[5] = Blood-to-plasma ratio and free fractions (PBPK input); type: in vitro ADME
Description: as §1

[6] = Vss after intravenous administration in healthy subjects (Morcos et al.); conditions: human, in vivo, 50 μg, 475 L normalized with 74.8 kg, read-out: Actual Vss
CYP3A4 [7] = target: T2, CYP3A4; assay: Mechanism-based CYP3A4 inhibition; type: biochemical; conditions: PBPK input; read-out: Mechanism-based inhibitor CYP3A4 inhibition Ki
Description: as §1

[8] = Physicochemical input parameters of alectinib for PBPK model
Description: as §1

CYP2J2 = assay: Intrinsic clearance assigned to CYP2J2; type: in vitro ADME; conditions: CYP2J2 arbitrarily assigned, true enzyme not known
Description: as §1

[9] = tested on: recurrent/refractory childhood cancers; conditions: IMT with ALK fusion gene, ALCL, neuroblastoma, other malignant solid tumors; cited from earlier work
[10] = fitted, multiple p.o. with standard meal, 150 mg capsule, Japanese adult patients

T2 sequence (P08684 whole entry): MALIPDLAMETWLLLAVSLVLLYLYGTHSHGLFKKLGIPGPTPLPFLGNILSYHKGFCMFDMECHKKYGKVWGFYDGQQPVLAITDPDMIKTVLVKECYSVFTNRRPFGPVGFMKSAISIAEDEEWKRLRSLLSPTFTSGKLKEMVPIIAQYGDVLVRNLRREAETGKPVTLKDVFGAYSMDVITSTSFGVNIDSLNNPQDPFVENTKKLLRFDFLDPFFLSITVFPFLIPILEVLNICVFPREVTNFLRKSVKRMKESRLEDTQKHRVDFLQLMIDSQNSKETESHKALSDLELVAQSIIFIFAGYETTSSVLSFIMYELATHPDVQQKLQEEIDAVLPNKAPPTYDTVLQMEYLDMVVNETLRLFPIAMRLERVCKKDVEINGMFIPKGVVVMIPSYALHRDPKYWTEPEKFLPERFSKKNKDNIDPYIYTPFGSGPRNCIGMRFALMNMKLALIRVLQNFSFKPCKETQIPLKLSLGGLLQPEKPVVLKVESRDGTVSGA

| Structure (SMILES) | microsomal CLint [1] [µL/min/mg] | CYP3A4 induction Indslope (CYP3A4 [2]) [µM⁻¹] | Ki (CYP2C8) [µM] | Contribution of CYP3A4 to hepatic metabolic clearance (CYP3A4 [3]) | CLint, CYP3A4 (CYP3A4 [3]; PBPK input) | QGUT ([4]; first-order absorption model (assumed)) [L/h] | Fa [4, 10] | Lag time [4, 10] [h] | ka [4, 10] [h⁻¹] | fuGut [5] | Vd [6] [L/kg] | Ki (CYP3A4 [7]) [µM] | logP [8] | pKa 1 ([8]; monoprotic base) | CLint, CYP2J2 (CYP2J2) | Clinical efficacy in childhood cancers [9] |
| --- | --- | --- | --- | --- | --- | --- | --- | --- | --- | --- | --- | --- | --- | --- | --- | --- |
| CCc1cc2c(cc1N1CCC(N3CCOCC3)CC1)C(C)(C)c1[nH]c3cc(C#N)ccc3c1C2=O [alectinib, 9-ethyl-6,6-dimethyl-8-(4-morpholin-4-yl-piperidin-1-yl)-11-oxo-6,11-dihydro-5H-benzo[b]carbazole-3-carbonitrile] | 1710 | 3.52 | 0.147 | about 40% | 9.98 μL/min/pmol of μL/min/pmol of isoform | 8.49 | 0.48 | 2.92 | 0.22 | 0.01 | 6.35 | 8.29 | 1.96 | 7.05 | 285 μL/min/pmol of μL/min/pmol of isoform |  |
| C[C@@H](Oc1cc(-c2cnn(C3CCNCC3)c2)cnc1N)c1c(Cl)ccc(F)c1Cl [crizotinib] |  |  |  |  |  |  |  |  |  |  |  |  |  |  |  | has clinical efficacy in these childhood cancers |
